This passage reports EC50 results from patent US20260001893A1, “SMALL MOLECULE MODULATORS OF STAT6” (Gilead Sciences, Inc., priority 2024, published 2026).

Molecules are shown by their SMILES. pEC50: −log10 of the molar value.

In this experiment the test system is Eotaxin-3 (CCL26) release in human whole blood stimulated with IL-4. As to the kind of experiment: Human whole blood eotaxin-3 assay (IL-4 stimulated eotaxin-3 release). In kind it is cell-based. Particulars: Homo sapiens, 48 h, human whole blood stimulated with recombinant human IL-4, 48 h; inhibition of eotaxin-3 release; given for test compounds with >80% Emax; geometric mean. The gist of the method:
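Lithium-heparin human whole blood was preincubated with compound (4-fold serial dilution, 0.5% DMSO final) for 2 h at 37° C, then stimulated with recombinant human IL-4 at […] final for 48 h. Eotaxin-3 (CCL26) in the supernatant was measured by MSD immunoassay.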
`C[C@@H](c1cc2c(-n3ccc4c(c3=O)CCN4)ccnc2n1C)N1CC=C(c2c(F)cc(C(=O)N(C)C)cc2F)CC1` [Example 1m122, (S)-3,5-difluoro-N,N-dimethyl-4-(1-(1-(1-methyl-4-(4-oxo-1,2,3,4-tetrahydro-5H-pyrrolo[3,2-c]pyridin-5-yl)-1H-pyrrolo[2,3-b]pyridin-2-yl)ethyl)-1,2,3,6-tetrahydropyridin-4-yl)benzamide]: the pEC50 (commonly the EC50 on a negative log10 scale, so that one unit is a factor of ten) was 7.94.

Take `C[C@H](c1cc2c(-n3ccc4c(c3=O)CCN4)ccnc2n1C)N1CC=C(c2c(F)cc(C(=O)N(C)C)cc2F)CC1` [Example 1m123, (R)-3,5-difluoro-N,N-dimethyl-4-(1-(1-(1-methyl-4-(4-oxo-1,2,3,4-tetrahydro-5H-pyrrolo[3,2-c]pyridin-5-yl)-1H-pyrrolo[2,3-b]pyridin-2-yl)ethyl)-1,2,3,6-tetrahydropyridin-4-yl)benzamide]: the pEC50 is 6.68.

For `CNc1cc(=O)n(-c2ccnc3c2cc([C@H](C)N2CC=C(c4c(C)cc(C(=O)N(C)C)cc4F)CC2)n3C)cc1F` [Example 1m124, (S)-3-fluoro-4-(1-(1-(4-(5-fluoro-4-(methylamino)-2-oxopyridin-1 (2H)-yl)-1-methyl-1H-pyrrolo[2,3-b]pyridin-2-yl)ethyl)-1,2,3,6-tetrahydropyridin-4-yl)-N,N,5-trimethylbenzamide], the pEC50 was 8.12.

With `CNc1ccn(-c2ccnc3c2cc([C@H](C)N2CC=C(c4c(C)cc(C(=O)N(C)C)cc4F)CC2)n3C)c(=O)c1F` [Example 1m125, (S)-3-fluoro-4-(1-(1-(4-(3-fluoro-4-(methylamino)-2-oxopyridin-1 (2H)-yl)-1-methyl-1H-pyrrolo[2,3-b]pyridin-2-yl)ethyl)-1,2,3,6-tetrahydropyridin-4-yl)-N,N,5-trimethylbenzamide], the pEC50 was 7.60.

In the case of `C[C@@H](c1cc2c(-n3ccc4c(c3=O)CCN4)ccnc2n1C)N1CCC(c2c(F)cc(C(=O)N(C)C)cc2F)CC1` [Example 1m126, (S)-3,5-difluoro-N,N-dimethyl-4-(1-(1-(1-methyl-4-(4-oxo-1,2,3,4-tetrahydro-5H-pyrrolo[3,2-c]pyridin-5-yl)-1H-pyrrolo[2,3-b]pyridin-2-yl)ethyl)piperidin-4-yl)benzamide], the pEC50 was 7.91.

As to `C[C@H](c1cc2c(-n3ccc4c(c3=O)CCN4)ccnc2n1C)N1CCC(c2c(F)cc(C(=O)N(C)C)cc2F)CC1` [Example 1m127, (R)-3,5-difluoro-N,N-dimethyl-4-(1-(1-(1-methyl-4-(4-oxo-1,2,3,4-tetrahydro-5H-pyrrolo[3,2-c]pyridin-5-yl)-1H-pyrrolo[2,3-b]pyridin-2-yl)ethyl)piperidin-4-yl)benzamide], the pEC50 was 7.31.

With `[2H]C([2H])([2H])N(C(=O)c1cc(C)c(C2=CCN([C@@H](C)c3cc4c(-n5ccc6c(c5=O)CCN6)ccnc4n3C)CC2)c(F)c1)C([2H])([2H])[2H]` [Example 1m128, (S)-3-fluoro-5-methyl-N,N-bis(methyl-d3)-4-(1-(1-(1-methyl-4-(4-oxo-1,2,3,4-tetrahydro-5H-pyrrolo[3,2-c]pyridin-5-yl)-1H-pyrrolo[2,3-b]pyridin-2-yl)ethyl)-1,2,3,6-tetrahydropyridin-4-yl)benzamide], the pEC50 was 8.47.

For `CNc1nc(=O)n(-c2ccnc3c2cc([C@H](C)N2CC=C(c4c(C)cc(C(=O)N(C)C)cc4F)CC2)n3C)cc1F` [Example 1m129, (S)-3-fluoro-4-(1-(1-(4-(5-fluoro-4-(methylamino)-2-oxopyrimidin-1 (2H)-yl)-1-methyl-1H-pyrrolo[2,3-b]pyridin-2-yl)ethyl)-1,2,3,6-tetrahydropyridin-4-yl)-N,N,5-trimethylbenzamide], the pEC50 was 8.39.

For the molecule `CNc1cc(=O)n(-c2ccnc3c2cc([C@@H](C)N2CCC(c4c(C)cc(C(=O)N(C)C)cc4F)CC2)n3C)cc1F` [Example 1m130, (R)-3-fluoro-4-(1-(1-(4-(5-fluoro-4-(methylamino)-2-oxopyridin-1 (2H)-yl)-1-methyl-1H-pyrrolo[2,3-b]pyridin-2-yl)ethyl)piperidin-4-yl)-N,N,5-trimethylbenzamide], the pEC50 is 7.65.
